ChEMBL document CHEMBL1141677, “Synthesis and structure-antibacterial activity of triazolyl oxazolidinones containing long chain acyl moiety” (2008)
Converted amounts (≈) assume the structure as drawn.

Tests used:
Assay type in all cases: functional
Moraxella catarrhalis = assay: Antibacterial activity against Moraxella catarrhalis clinical isolate after 18 hrs by agar dilution method
Staphylococcus aureus [1] = assay: Antibacterial activity against Staphylococcus aureus ATCC 25923 after 18 hrs by agar dilution method in presence of 50% human plasma; details: ATCC 25923, Plasma
Staphylococcus [2] = assay: Antibacterial activity against methicillin-susceptible coagulase-negative Staphylococcus clinical isolate after 18 hrs by agar dilution method
Escherichia coli = assay: Antibacterial activity against Escherichia coli ATCC 25922 after 18 hrs by agar dilution method; details: ATCC 25922, 18 h
Staphylococcus aureus [3] = assay: Antibacterial activity against Staphylococcus aureus ATCC 25923 after 18 hrs by agar dilution method; details: for MIC: Staphylococcus aureus, ATCC 25923, 18 h
Enterococcus [4] = assay: Antibacterial activity against vancomycin-sensitive Enterococcus after 18 hrs by agar dilution method
Staphylococcus aureus [5] = assay: Antibacterial activity against methicillin-susceptible Staphylococcus aureus clinical isolate after 18 hrs by agar dilution method
Streptococcus pneumoniae = assay: Antibacterial activity against penicillin-resistant Streptococcus pneumoniae after 18 hrs by agar dilution method
Haemophilus influenzae = assay: Antibacterial activity against Haemophilus influenzae clinical isolate after 18 hrs by agar dilution method
Staphylococcus [6] = assay: Antibacterial activity against methicillin-resistant coagulase-negative Staphylococcus clinical isolate after 18 hrs by agar dilution method
Enterococcus [7] = assay: Antibacterial activity against vancomycin-resistant Enterococcus after 18 hrs by agar dilution method
Staphylococcus aureus [8] = assay: Antibacterial activity against methicillin-resistant Staphylococcus aureus clinical isolate after 18 hrs by agar dilution method; details: for MIC: Staphylococcus aureus, 18 h

CCCCCCCCCCCCCCCC(=O)N1CCN(c2ccc(N3C[C@H](Cn4ccnn4)OC3=O)cc2F)CC1 was tested, and the MIC (Moraxella catarrhalis) was no less than 8 µg/mL, the MIC (Staphylococcus aureus [1]) was greater than 16 µg/mL and the MIC (Staphylococcus [2]) was greater than 16 µg/mL. For the same compound, the MIC (Escherichia coli) was no less than 8 µg/mL, the “-logMIC” value (Staphylococcus aureus [3]) was 1.56 and the MIC (Staphylococcus aureus [3]) was greater than 16 µg/mL. For the same compound, the MIC (Enterococcus [4]) was greater than 16 µg/mL, the MIC (Staphylococcus aureus [5]) was greater than 16 µg/mL and the MIC (Streptococcus pneumoniae) was greater than 16 µg/mL. It also gave an MIC (Haemophilus influenzae) of no less than 8 µg/mL.

O=C(C1CCCC1)N1CCN(c2ccc(N3C[C@H](Cn4ccnn4)OC3=O)cc2F)CC1 gave an MIC (Staphylococcus [6]) of 1 µg/mL (≈ 2.26 µM), an MIC (Enterococcus [7]) of 1 µg/mL (≈ 2.26 µM) and an MIC (Moraxella catarrhalis) of no less than 8 µg/mL. For the same compound, the MIC (Staphylococcus aureus [1]) was 4 µg/mL, the MIC (Staphylococcus [2]) was 1 µg/mL (≈ 2.26 µM) and the “-logMIC” value (Staphylococcus aureus [8]) was 2.65. The MIC (Staphylococcus aureus [8]) was 1 µg/mL (≈ 2.26 µM), the MIC (Escherichia coli) was no less than 8 µg/mL and the “-logMIC” value (Staphylococcus aureus [3]) was 2.34. For the same compound, the MIC (Staphylococcus aureus [3]) was 2 µg/mL (≈ 4.52 µM), the MIC (Enterococcus [4]) was 1 µg/mL (≈ 2.26 µM) and the MIC (Staphylococcus aureus [5]) was 1 µg/mL (≈ 2.26 µM). The MIC (Streptococcus pneumoniae) was 1 µg/mL (≈ 2.26 µM) and the MIC (Haemophilus influenzae) was no less than 8 µg/mL.

CCCCCCCCCCCCCC(=O)N1CCN(c2ccc(N3C[C@H](Cn4ccnn4)OC3=O)cc2F)CC1 gave an MIC (Moraxella catarrhalis) of no less than 8 µg/mL, an MIC (Staphylococcus aureus [1]) greater than 16 µg/mL and an MIC (Staphylococcus [2]) greater than 16 µg/mL. For the same compound, the MIC (Escherichia coli) was no less than 8 µg/mL, the “-logMIC” value (Staphylococcus aureus [3]) was 1.54 and the MIC (Staphylococcus aureus [3]) was greater than 16 µg/mL. The MIC (Enterococcus [4]) was greater than 16 µg/mL, the MIC (Staphylococcus aureus [5]) was greater than 16 µg/mL and the MIC (Streptococcus pneumoniae) was greater than 16 µg/mL. For the same compound, the MIC (Haemophilus influenzae) was no less than 8 µg/mL.

For O=C1O[C@@H](Cn2ccnn2)CN1c1ccc(N2CCOCC2)c(F)c1, the MIC (Staphylococcus [6]) was 0.5 µg/mL (≈ 1.44 µM), the MIC (Enterococcus [7]) was 1 µg/mL (≈ 2.88 µM) and the MIC (Moraxella catarrhalis) was no less than 8 µg/mL. For the same compound, the MIC (Staphylococcus aureus [1]) was 1 µg/mL, the MIC (Staphylococcus [2]) was 0.5 µg/mL (≈ 1.44 µM) and the MIC (Staphylococcus aureus [8]) was 0.5 µg/mL (≈ 1.44 µM). It also gave an MIC (Escherichia coli) of no less than 8 µg/mL, an MIC (Staphylococcus aureus [3]) of 1 µg/mL (≈ 2.88 µM) and an MIC (Enterococcus [4]) of 0.5 µg/mL (≈ 1.44 µM). It also gave an MIC (Staphylococcus aureus [5]) of 0.5 µg/mL (≈ 1.44 µM), an MIC (Streptococcus pneumoniae) of 0.5 µg/mL (≈ 1.44 µM) and an MIC (Haemophilus influenzae) of no less than 8 µg/mL.

CCC(=O)N1CCN(c2ccc(N3C[C@H](Cn4ccnn4)OC3=O)cc2F)CC1 showed an MIC (Staphylococcus [6]) of 1 µg/mL (≈ 2.48 µM), an MIC (Enterococcus [7]) of 1 µg/mL (≈ 2.48 µM) and an MIC (Moraxella catarrhalis) of no less than 8 µg/mL. The MIC (Staphylococcus aureus [1]) was 1 µg/mL, the MIC (Staphylococcus [2]) was 0.12 µg/mL (≈ 0.298 µM) and the “-logMIC” value (Staphylococcus aureus [8]) was 2.6. For the same compound, the MIC (Staphylococcus aureus [8]) was 1 µg/mL (≈ 2.48 µM), the MIC (Escherichia coli) was no less than 8 µg/mL and the “-logMIC” value (Staphylococcus aureus [3]) was 2.6. The MIC (Staphylococcus aureus [3]) was 1 µg/mL (≈ 2.48 µM), the MIC (Enterococcus [4]) was 0.5 µg/mL (≈ 1.24 µM) and the MIC (Staphylococcus aureus [5]) was 1 µg/mL (≈ 2.48 µM). It also gave an MIC (Streptococcus pneumoniae) of 1 µg/mL (≈ 2.48 µM) and an MIC (Haemophilus influenzae) of no less than 8 µg/mL.

CCCCCCCCCCC(=O)N1CCN(c2ccc(N3C[C@H](Cn4ccnn4)OC3=O)cc2F)CC1 showed an MIC (Moraxella catarrhalis) of no less than 8 µg/mL, an MIC (Staphylococcus aureus [1]) greater than 16 µg/mL and an MIC (Staphylococcus [2]) greater than 16 µg/mL. The MIC (Escherichia coli) was no less than 8 µg/mL, the “-logMIC” value (Staphylococcus aureus [3]) was 1.51 and the MIC (Staphylococcus aureus [3]) was greater than 16 µg/mL. It also gave an MIC (Enterococcus [4]) greater than 16 µg/mL, an MIC (Staphylococcus aureus [5]) greater than 16 µg/mL and an MIC (Streptococcus pneumoniae) greater than 16 µg/mL. For the same compound, the MIC (Haemophilus influenzae) was no less than 8 µg/mL.

In the case of O=C(C1CCCCC1)N1CCN(c2ccc(N3C[C@H](Cn4ccnn4)OC3=O)cc2F)CC1, the MIC (Staphylococcus [6]) is reported as 1 µg/mL (≈ 2.19 µM), the MIC (Enterococcus [7]) is reported as 1 µg/mL (≈ 2.19 µM) and the MIC (Moraxella catarrhalis) is reported as no less than 8 µg/mL. The MIC (Staphylococcus aureus [1]) was 4 µg/mL, the MIC (Staphylococcus [2]) was 1 µg/mL (≈ 2.19 µM) and the “-logMIC” value (Staphylococcus aureus [8]) was 2.66. For the same compound, the MIC (Staphylococcus aureus [8]) was 1 µg/mL (≈ 2.19 µM), the MIC (Escherichia coli) was no less than 8 µg/mL and the “-logMIC” value (Staphylococcus aureus [3]) was 2.06. It also gave an MIC (Staphylococcus aureus [3]) of 4 µg/mL (≈ 8.76 µM), an MIC (Enterococcus [4]) of 1 µg/mL (≈ 2.19 µM) and an MIC (Staphylococcus aureus [5]) of 1 µg/mL (≈ 2.19 µM). For the same compound, the MIC (Streptococcus pneumoniae) was 0.5 µg/mL (≈ 1.1 µM) and the MIC (Haemophilus influenzae) was no less than 8 µg/mL.

In the case of CC(=O)N1CCN(c2ccc(N3C[C@H](Cn4ccnn4)OC3=O)cc2F)CC1, the MIC (Staphylococcus [6]) is reported as 0.25 µg/mL (≈ 0.644 µM), the MIC (Enterococcus [7]) is reported as 0.25 µg/mL (≈ 0.644 µM) and the MIC (Moraxella catarrhalis) is reported as no less than 8 µg/mL. The MIC (Staphylococcus aureus [1]) was 1 µg/mL, the MIC (Staphylococcus [2]) was 0.25 µg/mL (≈ 0.644 µM) and the “-logMIC” value (Staphylococcus aureus [8]) was 3.19. The MIC (Staphylococcus aureus [8]) was 0.25 µg/mL (≈ 0.644 µM), the MIC (Escherichia coli) was no less than 8 µg/mL and the “-logMIC” value (Staphylococcus aureus [3]) was 2.59. The MIC (Staphylococcus aureus [3]) was 1 µg/mL (≈ 2.57 µM), the MIC (Enterococcus [4]) was 0.5 µg/mL (≈ 1.29 µM) and the MIC (Staphylococcus aureus [5]) was 0.5 µg/mL (≈ 1.29 µM). For the same compound, the MIC (Streptococcus pneumoniae) was 0.5 µg/mL (≈ 1.29 µM) and the MIC (Haemophilus influenzae) was no less than 8 µg/mL.

With CCCCCCC(=O)N1CCN(c2ccc(N3C[C@H](Cn4ccnn4)OC3=O)cc2F)CC1 the MIC (Staphylococcus [6]) was 2 µg/mL (≈ 4.36 µM), the MIC (Enterococcus [7]) was 4 µg/mL (≈ 8.72 µM) and the MIC (Moraxella catarrhalis) was no less than 8 µg/mL. For the same compound, the MIC (Staphylococcus aureus [1]) was greater than 16 µg/mL, the MIC (Staphylococcus [2]) was 1 µg/mL (≈ 2.18 µM) and the “-logMIC” value (Staphylococcus aureus [8]) was 2.36. The MIC (Staphylococcus aureus [8]) was 2 µg/mL (≈ 4.36 µM), the MIC (Escherichia coli) was no less than 8 µg/mL and the “-logMIC” value (Staphylococcus aureus [3]) was 2.06. It also gave an MIC (Staphylococcus aureus [3]) of 4 µg/mL (≈ 8.72 µM), an MIC (Enterococcus [4]) of 4 µg/mL (≈ 8.72 µM) and an MIC (Staphylococcus aureus [5]) of 2 µg/mL (≈ 4.36 µM). For the same compound, the MIC (Streptococcus pneumoniae) was 4 µg/mL (≈ 8.72 µM) and the MIC (Haemophilus influenzae) was no less than 8 µg/mL.
